# Values joined by “and” are separate entries in the source; they are usually repeats but may differ in a detail not shown here. Equal values may be shown once. “Also recorded” adds a separate entry of the source.
# Legend:
# [1] = test system: pancreatin; experiment: Deacetylation of 3/15ADON by pancreatin; type: in vitro ADME, porcine; details: pancreatin 1.23 mg/mL, PBS pH 7.4, 37 °C, substrate 100 μM
# Method: (§1) Stock solutions of DON, 3ADON and 15ADON at 2 mg/mL were prepared in absolute ethanol and stored at −20 °C. For deacetylation assay, 3- or 15ADON were incubated with cells, explants, bacteria or digestive enzymes after being diluted in PBS^++ at a final concentration of 100 μM. PBS^++ solution containing only ethanol (at 1.5% final concentration) or DON (at 100 μM) were used in parallel as negative and positive control, respectively. For cells and explants, deacetylation assay take place in 6-well plates, wells being filled with 2 mL of PBS^++ containing either ethanol, DON, 3- or 15ADON. For fecal bacteria and digestive enzyme assay, deacetylation assay was conducted in 2 mL Eppendorf tubes filled with 1.5 mL of PBS^++ containing either ethanol, DON, 3- or 15ADON. In vitro intestinal digestion by luminal enzymes was performed using porcine enzymes from Sigma-Aldrich and physiological conditions. […] In all cases, aliquots of the reaction solution were collected immediately (i.e., “time zero” sample) or after the indicated time period at 37 °C and analyzed by HPLC. […]
# (§2) Deacetylation was monitoring both in term of disappearance of 3- or 15ADON and formation of DON. […] Quantification was based on calibration with the corresponding standard using Millinium Software (Waters, Saint Quentin Falavier, France).
# [2] = test system: Caco-2 cells; experiment: Deacetylation of 3/15ADON by Caco-2 cells; type: in vitro ADME, human; details: for Disappearance of 3/15ADON, specific activity: Caco-2, 37 °C, substrate 100 μM; for % deacetylated: Caco-2, 6 h incubation, 100 μM
# Method: (§3) A498, Caco-2, T84 and HepG2 cells were used as models of human renal, small intestinal, colonic and hepatic cells, respectively. Cells were routinely grown in culture media (Dulbecco’s Modified Eagle Medium (DMEM), DMEM:F12 mixture and Minimum Essential Media (MEM) for A498/Caco-2, T84 and HepG2 cells, respectively) supplemented with 10% fetal calf serum and 1% antibiotics (streptomycin–penicillin solution). Cells were grown in 25 cm^2 ventilated flask maintained at 37 °C in a 5% CO2 incubator. Cells were routinely passed using trypsin-EDTA solution. For deacetylation experiments, cells were seeded onto 6-well plates at an initial density of 200,000 cells/cm^2. HepG2 and A498 were used 3–4 days post-seeding when confluence was reached. Caco-2 and T84 cells were let to differentiate for 10–14 days post-seeding before being used. In all cases, cells were washed three times with sterile phosphate buffer saline PBS^++ (PBS containing 100 mg/L of calcium and magnesium salts) before deacetylation assay.
# Stock solutions of DON, 3ADON and 15ADON at 2 mg/mL were prepared in absolute ethanol and stored at −20 °C. For deacetylation assay, 3- or 15ADON were incubated with cells, explants, bacteria or digestive enzymes after being diluted in PBS^++ at a final concentration of 100 μM. PBS^++ solution containing only ethanol (at 1.5% final concentration) or DON (at 100 μM) were used in parallel as negative and positive control, respectively. For cells and explants, deacetylation assay take place in 6-well plates, wells being filled with 2 mL of PBS^++ containing either ethanol, DON, 3- or 15ADON. For fecal bacteria and digestive enzyme assay, deacetylation assay was conducted in 2 mL Eppendorf tubes filled with 1.5 mL of PBS^++ containing either ethanol, DON, 3- or 15ADON. In vitro intestinal digestion by luminal enzymes was performed using porcine enzymes from Sigma-Aldrich and physiological conditions. Briefly, 3- or 15ADON were incubated with pepsin (at 1.6 mg/mL corresponding to 900 U/mL), trypsin (at 0.35 mg/mL corresponding to 6000 U/mL), pancreatic lipase (at 0.75 mg/mL corresponding to 18 U/mL) or pancreatin (at 1.23 mg/mL, lipase activity >10 U/mL, protease activity >100 U/mL, amylase activity >100 U/mL). Except for pepsin for which the digestion was conducted in HCl solution at 10 mM (pH 2.3), in vitro digestion was performed in PBS^++ (pH 7.4). Finally, deacetylation assay was also performed with commercial pooled S9 fractions from human liver, small intestine and kidneys as well as with pure recombinant human CES1 and CES2. […] In all cases, aliquots of the reaction solution were collected immediately (i.e., “time zero” sample) or after the indicated time period at 37 °C and analyzed by HPLC. […]
# [3] = test system: A498 cells; experiment: Deacetylation of 3/15ADON by A498 cells; type: in vitro ADME, human
# Method: as §3
# Stock solutions of DON, 3ADON and 15ADON at 2 mg/mL were prepared in absolute ethanol and stored at −20 °C. […] In all cases, aliquots of the reaction solution were collected immediately (i.e., “time zero” sample) or after the indicated time period at 37 °C and analyzed by HPLC. […]
# [4] = parameters: method as in PMID 26343882; details: pigs, oral and intravenous (i.v) exposures; cited from earlier work
# [5] = target: T1, recombinant human CES1 (Homo sapiens, UniProt P23141); experiment: Deacetylation of 3/15ADON by recombinant CES1; type: in vitro ADME; parameters: purchased R&D Systems; details: 5 μg/mL CES1, up to 24 h, data not shown
# T1 sequence (P23141 18-567): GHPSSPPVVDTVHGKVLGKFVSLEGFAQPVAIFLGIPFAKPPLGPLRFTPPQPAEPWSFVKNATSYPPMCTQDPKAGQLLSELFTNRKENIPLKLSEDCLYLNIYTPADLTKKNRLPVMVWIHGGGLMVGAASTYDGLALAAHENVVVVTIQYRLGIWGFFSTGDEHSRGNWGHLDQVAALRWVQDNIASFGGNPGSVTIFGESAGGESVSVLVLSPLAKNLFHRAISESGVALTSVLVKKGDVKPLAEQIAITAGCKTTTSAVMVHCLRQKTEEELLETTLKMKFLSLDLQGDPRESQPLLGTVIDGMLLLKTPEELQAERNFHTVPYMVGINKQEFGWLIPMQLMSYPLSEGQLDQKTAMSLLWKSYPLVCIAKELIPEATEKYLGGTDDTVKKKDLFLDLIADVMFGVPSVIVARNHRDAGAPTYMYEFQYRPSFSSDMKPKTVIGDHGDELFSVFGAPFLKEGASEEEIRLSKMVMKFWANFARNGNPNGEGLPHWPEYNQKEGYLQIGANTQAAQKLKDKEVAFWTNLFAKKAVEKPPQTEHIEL
# Method: as §1, §2
smiles,measurement,setting,value
"CC(=O)O[C@@H]1C[C@]2(C)[C@@]3(CO)[C@H](O)C(=O)C(C)=C[C@H]3O[C@H]1[C@@]21CO1 [3ADON, 3-acetyldeoxynivalenol]","Disappearance of 3/15ADON, specific activity",[1],24 ± 16 pmol/min/mg
same,"Disappearance of 3/15ADON, specific activity",[2],479 pmol/min/mg and 479 ± 97 pmol/min/mg
same,% deacetylated,[2],69.1% ± 14.3%
same,"Disappearance of 3/15ADON, specific activity","[3]; A498, 37 °C, substrate 100 μM",79 pmol/min/mg and 79 ± 46 pmol/min/mg
same,Transformation into DON in vivo,[4],complete transformation into DON
same,Deacetylation activity of CES1 on 3/15ADON,[5],failed at observing any deacetylation activity; also recorded: unable to cause the deacetylation
"CC(=O)OC[C@]12[C@H](O)C(=O)C(C)=C[C@H]1O[C@@H]1[C@H](O)C[C@@]2(C)[C@]12CO2 [15ADON, 15-acetyldeoxynivalenol]","Disappearance of 3/15ADON, specific activity",[1],26 ± 17 pmol/min/mg
same,"Disappearance of 3/15ADON, specific activity",[2],152 pmol/min/mg and 152 ± 38 pmol/min/mg
same,% deacetylated,[2],22.4% ± 5.5%
same,Activity of renal cells on 15ADON,[3]; in words,virtually inactive
same,Transformation into DON in vivo,[4],complete transformation into DON
same,Deacetylation activity of CES1 on 3/15ADON,[5],failed at observing any deacetylation activity; also recorded: unable to cause the deacetylation

# Reference: PMC4999848 (Toxins, 2016)
